Experimental data published in US8778616B2, “Method of using CCR3 binding agents to detect choroidal neovascularization” (University of Kentucky Research Foundation, priority 2009, dated 2014).

B1: CCL24: CCR3 ligand eotaxin-2, recombinant human (Peprotech) (protein, UniProt O00175 27-119, looked up)
C-C motif chemokine 24: VVIPSPCCMFFVSKRIPENRVVSYQLSSRSTCLKAGVIFTTKKGQQFCGDPKQEWVQRYMKNLDAKQKKASPRARAVAVKGPVQRYPGNQTTC

How the values were obtained:
[1] = tested on: laser-induced CNV; experiment: Laser-induced CNV in Ccr3−/− mice (specificity of CCR3 blockade); type: in vivo, mouse; settings: n=5, P>0.1
Protocol: (§1) Mouse model of CNV. Laser photocoagulation (OcuLight GL, Iridex Corporation) was performed on mouse eyes to induce CNV, and CNV volumes were measured 7 days after injury by scanning laser confocal microscope (TCS SP, Leica) as previously described (Kleinman, et al., Nature. 452, 591-597 (2008)). Drug injections. Rat IgG2a neutralizing antibody against mouse CCR3 (R&D Systems), control rat IgG2a (Serotec), goat neutralizing antibody against mouse CCL11 (R&D Systems), goat neutralizing antibody against mouse CCL24 (R&D Systems), control goat IgG (Jackson Immunoresearch), or (S)-Methyl-2-naphthoylamino-3-(4-nitrophenyl)propionate (SB328437; Calbiochem) dissolved in DMSO were injected into the vitreous humor using a 33-gauge double-calibre needle (Ito Corporation) once, immediately after laser injury as previously described (Kleinman, et al., (2008) supra).
Animals. All animal experiments were in accordance with the guidelines of the University of Kentucky IACUC and the Association for Research in Vision and Ophthalmology. C57BL/6J and Kit^W-v/Kit^W-v mice were purchased from The Jackson Laboratory. […]

[2] = tested on: laser-induced CNV; experiment: Laser-induced CNV in wild-type mice; type: in vivo, mouse; settings: single intraocular administration after laser injury, versus isotype IgG or vehicle
Protocol: as §1
Drug injections. […]

[3] = tested on: retina; experiment: Retinal toxicity by fundus imaging and electroretinography; type: in vivo; settings: wild-type mice, fundus imaging and electrophysiological function; anti-VEGF-A: repeated intravitreous administration
Protocol: Electroretinography. Mice were dark adapted overnight and then anesthetized. Both eyes were positioned within a ColorBurst Ganzfeld stimulator (Diagnosys). Espion software (Diagnosys) was used to program a fully automated flash intensity series from which retinal responses were recorded.

[4] = tested on: human CECs; experiment: F-actin polymerization assay; type: cell-based; settings: CCL11 10 ng/ml, CCL24 100 ng/ml, CCL26 2 μg/ml; versus PBS
Protocol: F-actin Polymerization Assay. Human CECs were seeded in black-walled 96-well plates and grown to 70-80% confluence in fully supplemented EGM-2MV. Cultures were serum starved overnight in basal media and then stimulated with recombinant human eotaxin-1 (10 ng/ml), eotaxin-2 (100 ng/ml), eotaxin-3 (2 μg/ml) (Peprotech), or vehicle control (PBS). At 0, 10, 30, 60, or 120 sec time-points, cells were fixed in 3.7% paraformaldehyde for 10 min, washed, permeabilized in PBS with 0.1% Triton-X, and then stained with rhodamine labelled Phalloidin (1:200, Invitrogen) per manufacturer's recommendations. Plates were analyzed on a fluorescent plate reader (Synergy 4, Biotek) followed by fluorescent microscopy (Nikon E800).

[5] = tested on: human CECs; experiment: Proliferation assay (BrdU ELISA); type: cell-based; settings: 24 h stimulation; CCL11 10 ng/ml, CCL24 100 ng/ml, CCL26 2 μg/ml; versus BSA
Protocol: Proliferation assay. Human CECs were synchronized for cell cycle state by first cultivating them in EGM2-MV media (Lonza) supplemented with 10% FBS (Gibco) to achieve complete confluence and then by overnight serum starvation in MCDB131 media (Gibco) with 0.1% FBS. They were passaged to 96-well plates at a density of 5,000 cells per well, followed by stimulation for 24 h with eotaxin-1, 2 or 3 (10 ng, 100 ng and 2 μg per ml, respectively; Peprotech) in MCDB131 media with 0.1% FBS. After 24 h, cell viability was measured with BrdU ELISA (Chemicon) according to manufacturer's instructions.

[6] = tested on: Rac-1; experiment: Rac-1 activation pull-down assay; type: cell-based; settings: human CECs; CCL11 10 ng/ml, CCL24 100 ng/ml, CCL26 2 μg/ml; versus unstimulated (0 s) cells
Protocol: Rac-1 activation. Human CECs were cultured in EGM-2 MV containing 5% FBS. Prior to starting the assay, cells were serum starved with basal medium (MCDB131) supplemented with 1% FBS overnight. Cells were stimulated for designated times with Eotaxin-1, 2 and 3 (10 ng/ml, 100 ng/ml and 2 μg/ml respectively). Equal amounts of lysates (500 μg) were incubated with GST-Pak1-PBD agarose beads (Upstate) to pull-down active GTP-bound Rac-1 at 4° C. for 1 h with rotation. The samples were subsequently analyzed for bound Rac-1 by western blot analysis using an anti-Rac-1 antibody (Upstate).

[7] = tested on: CCR3; experiment: CCR3 bioimaging: fundus angiography after intravenous injection; type: in vivo, mouse; settings: wild-type and Ccl2−/−×Ccr2−/− mice
Protocol: CCR3 bioimaging. F(ab) fragments were created from monoclonal IgG2a antibody raised against the extracellular domain of murine CCR3 (R&D Systems) and an isotype rat IgG2a (R&D Systems) using a commercially available papain-based kit (Pierce). Recovered fragments were conjugated with quantum dots (Invitrogen, QDot-800) and resuspended in sterile PBS. Ccl2^−/−×Ccr2^−/− mice were administered 100 μg of tagged CCR3 F(ab) or isotype F(ab) via tail vein injection after acquiring baseline fluorescent imaging using a Topcon retinal camera (TRC-50IX). Serial images were then acquired at 1, 4, and 12 h after which eyes were harvested and frozen in OCT for immunofluorescent analyses. Retinal images were analyzed (ImageNet, Topcon) by comparison to baseline and fluorescein angiographic data. Hyperfluorescent areas were then cropped, equally thresholded, and pseudocolored (Photoshop CS3, Adobe). Sections from QDot-conjugated CCR3 or rat IgG2a isotype F(ab) injected animals were fixed in 4% paraformaldehyde and blocked with 5% normal donkey serum/5% goat serum in PBS, stained with rat anti-mouse CD31 (BD Biosciences) and either rabbit anti-mouse CCR3 (Santa Cruz) or rabbit anti-Ki67 (Abcam) followed by appropriate fluorescent secondary antibodies (Alexa Fluor 488/594, Invitrogen), and evaluated by confocal laser scanning microscopy (Leica SP-5).

| Molecule | CNV in Ccr3−/− mice [1] | laser-induced CNV (effect in words) [2] | laser-induced CNV (effect in words) ([2]; listed as (S)-Methyl-2-naphthoylamino-3-(4-nitrophenyl)propionate) | retinal toxicity [3] | actin polymerization in human CECs [4] | human CEC proliferation [5] | active (GTP-bound) Rac-1 GTPase levels [6] | hyperfluorescence indicative of CNV on fluorescein angiography [7] |
| --- | --- | --- | --- | --- | --- | --- | --- | --- |
| (S)-Methyl-2-naphthoylamino-3-(4-nitrophenyl)propionate [SB328437] | 109±16 % of control | reduced | suppressed laser injury-induced CNV in wild-type mice in a dose-dependent fashion | neither CCR3 Ab nor CCR3 receptor antagonist induced retinal toxicity | – | – | – | – |
| CCL11: CCR3 ligand eotaxin-1, recombinant human (Peprotech) | – | – | – | – | induced actin polymerization | induced human CEC proliferation | increased levels of activate Rac-1 GTPase | – |
| O=C([O-])c1ccccc1-c1c2ccc(=O)cc-2oc2cc([O-])ccc12.[Na+].[Na+] [sodium fluorescein] | – | – | – | – | – | – | – | no areas of hyperfluorescence indicative of CNV |
| CCL26: CCR3 ligand eotaxin-3, recombinant human (Peprotech) | – | – | – | – | induced actin polymerization | induced human CEC proliferation | increased levels of activate Rac-1 GTPase | – |
| B1 | – | – | – | – | induced actin polymerization | induced human CEC proliferation | increased levels of activate Rac-1 GTPase | – |
